# Reference: patent US6444812B1, “Intermediate compounds in the preparation of farnnesyl transferase inhibiting 1,8-annelated quinolinone derivatives substituted with N-or C linked imidazoles” (Janssen Pharmaceutica N.V., priority 1997, dated 2002)
# Key:
# [1] = tested on: NIH 3T3 cells transformed by the T24 activated human H-ras gene; assay: Ras-Transformed Cell Phenotype Reversion Assay; format: cell-based, mouse; details: cell counts after 72 hours proliferation
# Source text: “Ras-Transformed Cell Phenotype Reversion Assay”
# Insertion of activated oncogenes such as the mutant ras gene into mouse NIH 3T3 cells converts the cells to a transformed phenotype. The cells become tumorigenic, display anchorage independent growth in semi-solid medium and lose contact inhibition. Loss of contact inhibition produces cell cultures which no longer form uniform monolayers. Rather, the cells pile up into multicellular nodules and grow to very high saturation densities in plastic tissue culture dishes. Agents such as protein farnesyl transferase inhibitors which revert the ras transformed phenotype restore the uniform monolayer growth pattern to cells in culture. This reversion is easily monitored by counting the number of cells in tissue culture plates. Transformed cells will achieve higher cell numbers than cells which have reverted to an untransformed phenotype. Compounds which revert the transformed phenotype should produce antitumor effects in tumors bearing ras gene mutations.
# Compounds are screened in tissue culture in NIH 3T3 cells transformed by the T24 activated human H-ras gene. Cells are seeded at an initial density of 200,000 cells per well (9.6 cm^2 surface area) in six-well cluster tissue culture plates. Test compounds are immediately added to 3.0 ml cell growth medium in a 3.0 μl volume of DMSO, with a final concentration of DMSO in the cell growth medium of 0.1%. The test compounds are run at concentrations of 5, 10, 50, 100, and 500 nM along with a DMSO treated vehicle control. […] Then the cells are detached in 1.0 ml trypsin-EDTA cell dissociation medium and counted on a Coulter particle counter.
# Cell numbers expressed as cells per well are measured using a Coulter Particle Counter.
# All cell counts were corrected for the initial cell input density by subtracting 200,000.
# Control cell counts=[cell counts from cells incubated with DMSO vehicle−200,000]
# Test compound cell counts=[cell counts from cells incubated with test compound−200,000]. [formula]
# [2] = tested on: T24 activated human H-ras gene transformed NIH 3T3 fibroblast cells (T24 cells); assay: Farnesyl Protein Transferase Inhibitor Secondary Tumor Model; format: in vivo, Nude mice; details: po, 15 days of treatment
# Source text: “Farnesyl Protein Transferase Inhibitor Secondary Tumor Model”
# The enzyme farnesyl protein transferase catalyzes the covalent attachment of a farnesyl moiety derived from farnesyl pyrophosphate to the oncogene product p21^ras. This directs p21^ras to attach to plasma membranes. Once attached to plasma membranes, mutant or oncogenic forms of p21^ras will provide a signal for the transformation and uncontrolled growth of malignant tumor cells. Therefore, inhibitors of protein farnesyltransferase will prevent the membrane attachment of p21^ras and inhibit growth of ras-transformed tumors.
# Nude mice are inoculated with 1×10^6 of T24 activated human H-ras gene transformed NIH 3T3 fibroblast cells (T24 cells), subcutaneously in the inguinal region. After three days to allow tumors to become established, treatment with test compounds is begun via the oral route. The test compounds are dissolved in a 20% β-cyclodextrin in 0.1 N HCl solution and administered orally as 0.1 ml of compound solution per 10 g mouse body weight. Routinely used doses are 6.25, 12.5 and 25 mg/kg. Body weights and tumor sizes are monitored during the ensuing 15 days of treatment. At the end of treatment, animals are sacrificed and tumors are weighed.
# The “mean vehicle treated tumor weight” is defined as the mean tumor weight from 10 to 15 mice […].
# The “mean tumor weight” is defined as the mean tumor weight from 10 to 15 mice […]. [formula]
# [3] = target: T1, Human farnesyl protein transferase (Homo sapiens, UniProt P49354+P49356); assay: In Vitro Assay for Inhibition of Farnesyl Protein Transferase (scintillation proximity assay); format: biochemical; details: concentration of test compound producing 50% inhibition of enzyme activity; 60 min at 37° C.
# T1 construct: grown as monolayer cell cultures were used as a source of human enzyme; endogenous in cells; host or cells: KHOS (Kirsten virus transformed human osteosarcoma) cells from ATCC, grown as solid tumors in nude mice or as monolayer cultures; The enzyme was partially purified by a 30-50% ammonium sulfate cut and Q Fast Flow Sepharose
# Method: “In Vitro Assay for Inhibition of Farnesyl Protein Transferase”
# Human farnesyl protein transferase was prepared essentially as described (Y. Reiss et al., Methods: A Companion to Methods in Enzymology, vol. 1, 241-245, 1990). Kirsten virus transformed human osteosarcoma (KHOS) cells (American Type Culture Collection, Rockville, Md., USA) grown as solid tumors in nude mice or grown as monolayer cell cultures were used as a source of human enzyme. Briefly, cells or tumors were homogenized in buffer containing 50 mM Tris, 1 mM EDTA, 1 mM EGTA and 0.2 mM phenylmethylsulfonylfluoride (pH 7.5). The homogenates were centrifuged 28,000×g for 60 min and the supernatants collected. […] Fractions containing 4 to 5 ml volumes of column eluate were collected and analyzed for farnesyl protein transferase activity. […]
# The activity of farnesyl protein transferase was measured using the Farnesyl Transferase [^3H] […] The amount of [^3H]-farnesyl-(Cys)-biotin lamin B peptide synthesized in the presence or absence of test compounds was quantified as cpm by counting on a Wallac Model 1480 Microbeta Liquid Scintillation Counter. […] The protein farnesyl transferase activity observed in the presence of test compound was normalized to farnesyl transferase activity in the presence of 10% DMSO and expressed as percent inhibition. […]
melting point,Structure (SMILES),IC50 ([1]; NIH3T3),also measured
170 °C,"Cc1nc2cc(C(O)(c3ccc(Cl)cc3)c3cncn3C)cc3c(-c4cccc(Cl)c4)cc(=O)n1c23 (racemic) [Compound 30, (±)-6-(3-chlorophenyl)-8-[(4-chlorophenyl)hydroxy(1-methyl-1H-imidazol-5-yl)methyl]-2-methyl-4H-imidazo[4,5,1-ij]quinolin-4-one]",373 nM,
,"Cn1cncc1C(O)(c1ccc(Cl)cc1)c1cc2c3c(c1)c(-c1cccc(Cl)c1)cc(=O)n3CO2 (racemic) [Compound 15, (±)-6-(3-chlorophenyl)-8-[(4-chlorophenyl)hydroxy(1-methyl-1H-imidazol-5-yl)methyl]-2H,4H-oxazolo[5,4,3-ij]quinolin-4-one]",48 nM,
,"Cn1cncc1C(N)(c1ccc(Cl)cc1)c1cc2c3c(c1)c(-c1cccc(Cl)c1)cc(=O)n3CC2 (racemic) [Compound 8, (±)-8-[amino(4-chlorophenyl)(1-methyl-1H-imidazol-5-yl)methyl]-6-(3-chlorophenyl)-1,2-dihydro-4H-pyrrolo[3,2,1-ij]quinolin-4-one]",6.4 nM,% reduction final tumor weight ([2]; 6.25 mg/kg bid): 41%; % reduction final tumor weight ([2]; 12.25 mg/kg bid): 44%; % reduction final tumor weight ([2]; 25 mg/kg bid): 49%
,"Cn1cncc1C(c1ccc(Cl)cc1)c1cc2c3c(c1)c(-c1cccc(Cl)c1)cc(=O)n3CC2 (racemic) [Compound 6, (±)-6-(3-chlorophenyl)-8-[(4-chlorophenyl)(1-methyl-1H-imidazol-5-yl)methyl]-1,2-dihydro-4H-pyrrolo[3,2,1-ij]quinolin-4-one monohydrate]",32 nM,
213.6 °C,"Cn1cncc1C(O)(c1ccc(Cl)cc1)c1cc2c3c(c1)c(-c1cccc(Cl)c1)cc(=O)n3CC2 (racemic) [Compound 5, (±)-6-(3-chlorophenyl)-8-[(4-chlorophenyl)hydroxy(1-methyl-1H-imidazol-5-yl)methyl]-1,2-dihydro-4H-pyrrolo[3,2,1-ij]quinolin-4-one]",7.8 nM,
,O=c1cc(-c2cccc(Cl)c2)c2cc(C(c3ccc(Cl)cc3)n3ccnc3)cc3c2n1CC3 (centres unmarked) [Compound 38],,IC50 [3]: 15 nM
,"O=c1cc(-c2cccc(Cl)c2)c2cc(C(c3ccc(Cl)cc3)n3ccnc3)cc3c2n1CCC3 (racemic) [Compound 36, (±)-7-(3-chlorophenyl)-9-[(4-chlorophenyl)-1H-imidazol-1-ylmethyl]-2,3-dihydro-1H,5H-benzo[ij]quinolizin-5-one]",,IC50 [3]: 21 nM
226 °C,"Cn1cncc1C(O)(c1ccc(Cl)cc1)c1cc2nnn3c(=O)cc(-c4cccc(Cl)c4)c(c1)c23 (racemic) [Compound 35, (±)-6-(3-chlorophenyl)-8-[(4-chlorophenyl)hydroxy(1-methyl-1H-imidazol-5-yl)methyl]-4H-1,2,3-triazolo[4,5,1-ij]quinolin-4-one]",> 500 nM,
,"Cn1cncc1C(c1ccc(Cl)cc1)c1cc2c3c(c1)c(-c1cccc(Cl)c1)cc(=S)n3CC2 (racemic) [Compound 27, (±)-6-(3-chlorophenyl)-8-[(4-chlorophenyl)(1-methyl-1H-imidazol-5-yl)methyl]-1,2-dihydro-4H-pyrrolo[3,2,1-ij]quinoline-4-thione]",37.1 nM,
93.6 °C,"O=C1CC(c2cccc(Cl)c2)c2cc(C(c3ccc(Cl)cc3)n3ccnc3)cc3c2N1CCC3 (racemic) [Compound 37, (±)-7-(3-chlorophenyl)-9-[(4-chlorophenyl)-1H-imidazol-1-ylmethyl]-2,3,6,7-tetrahydro-1H,5H-benzo[ij]quinolizin-5-one]",,
,"Cn1cncc1C(N)(c1ccc(Cl)cc1)c1cc2c3c(c1)c(-c1cccc(Cl)c1)cc(=O)n3CC2 (centres unmarked) [Compound 10, (B)-8-[amino(4-chlorophenyl)(1-methyl-1H-imidazol-5-yl)methyl]-6-(3-chlorophenyl)-1,2-dihydro-4H-pyrrolo[3,2,1-ij]quinolin-4-on]",,IC50 [1]: 3.2 nM
,"Cn1cncc1C(O)(c1ccc(Cl)cc1)c1cc2nc(-c3ccccc3)n3c(=O)cc(-c4cccc(Cl)c4)c(c1)c23 (racemic) [Compound 31, (±)-6-(3-chlorophenyl)-8-[(4-chlorophenyl)hydroxy(1-methyl-1H-imidazol-5-yl)methyl]-2-phenyl-4H-imidazo[4,5,1-ij]quinolin-4-one]",> 500 nM,
,"Cn1cncc1C(O)(c1ccc(Cl)cc1)c1cc2[nH]c(=O)n3c(=O)cc(-c4cccc(Cl)c4)c(c1)c23 (racemic) [Compound 34, (±)-6-(3-chlorophenyl)-8-[(4-chlorophenyl)hydroxy(1-methyl-1H-imidzol-5-yl)methyl]-4H-imidazo[4,5,1-ij]quinoline-2,4(1H)-dione]",,IC50 [1]: > 500 nM

Structure (SMILES),melting point,IC50 ([1]; NIH3T3),also measured
"Cn1cncc1C(c1ccc(Cl)cc1)c1cc2c3c(c1)c(-c1cccc(Cl)c1)cc(=O)n3CC2.O (racemic) (hydrate or solvate) [Compound 6, (±)-6-(3-chlorophenyl)-8-[(4-chlorophenyl)(1-methyl-1H-imidazol-5-yl)methyl]-1,2-dihydro-4H-pyrrolo[3,2,1-ij]quinolin-4-one monohydrate]",147 °C,,
